Experimental data as given in BindingDB's records for doi:10.1021/jm970096g (National Cancer Institute-Frederick, 1998).

Experiments:
[1] = Cross Resistance (antiviral activity) with V108I (Non nucleoside reverse transcriptase inhibitor) resistant HIV isolate v
[2] = Cross Resistance (antiviral activity) with L74V (nucleoside reverse transcriptase inhibitor) resistant HIV isolate from cytopathic cell killing assay
[3] = Cross Resistance (antiviral activity) with 4xAZT (nucleoside reverse transcriptase inhibitor) resistant HIV isolate from cytopathic cell killing assay
[4] = Cross Resistance (antiviral activity) with A98G (Non nucleoside reverse transcriptase inhibitor) resistant HIV isolate from cytopathic cell killing assay
[5] = Cross Resistance (antiviral activity) with V179D (Non nucleoside reverse transcriptase inhibitor) resistant HIV isolate from cytopathic cell killing assay
[6] = Cross Resistance (antiviral activity) with Y181C (Non nucleoside reverse transcriptase inhibitor) resistant HIV isolate from cytopathic cell killing assay
[7] = Cross Resistance (antiviral activity) with Y188C (Non nucleoside reverse transcriptase inhibitor) resistant HIV isolate from cytopathic cell killing assay
[8] = Cross Resistance (antiviral activity) with K103N (Non nucleoside reverse transcriptase inhibitor) resistant HIV isolate from cytopathic cell killing assay
[9] = Cross Resistance (antiviral activity) with L100I (Non nucleoside reverse transcriptase inhibitor) resistant HIV isolate from cytopathic cell killing assay
[10] = Cross Resistance (antiviral activity) with K101E (Non nucleoside reverse transcriptase inhibitor) resistant HIV isolate from cytopathic cell killing assay
[11] = Cross Resistance (antiviral activity) with V106A (Non nucleoside reverse transcriptase inhibitor) resistant HIV isolate from cytopathic cell killing assay
[12] = Cross Resistance (antiviral activity) with 4xAZT/L100I (Non nucleoside reverse transcriptase inhibitor) resistant HIV isolate from cytopathic cell killing assay
[13] = Cross Resistance (antiviral activity) with 4xAZT/Y181C (Non nucleoside reverse transcriptase inhibitor) resistant HIV isolate from cytopathic cell killing assay
[14] = Cross Resistance (antiviral activity) with NL4-3(WT) NNRTI (Non nucleoside reverse transcriptase inhibitor) resistant HIV isolate from cytopathic cell killing assay
[15] = Cross Resistance (antiviral activity) with K101E (Non nucleoside reverse transcriptase inhibitor) resistant HIV isolate from cytopathic cell killing assay; remark: listed apart in the source
[16] = Cross Resistance (antiviral activity) with Y181C (Non nucleoside reverse transcriptase inhibitor) resistant HIV isolate from cytopathic cell killing assay; remark: listed apart in the source
[17] = Cross Resistance (antiviral activity) with V108I (Non nucleoside reverse transcriptase inhibitor) resistant HIV isolate from cytopathic cell killing assay
[18] = Cross Resistance (antiviral activity) with A98G (Non nucleoside reverse transcriptase inhibitor) resistant HIV isolate from cytopathic cell killing assay; remark: listed apart in the source
[19] = Cross Resistance (antiviral activity)of the compound with 4xAZT/Y181C (Non nucleoside reverse transcriptase inhibitor) resistant HIV isolate from cytopathic cell killing assay

Row | SMILES | EC50 [1] | EC50 [2] | EC50 [3] | EC50 [4] | EC50 [5] | EC50 [6] | EC50 [7] | EC50 [8] | EC50 [9] | EC50 [10] | EC50 [11] | EC50 [12] | EC50 [13] | EC50 [14] | EC50 [15] | EC50 [16] | EC50 [17] | EC50 [18] | EC50 [19]
1 | Cc1cccc2c1nc(-c1c(F)cccc1F)n2Cc1c(F)cccc1F | 2.8 µM | 0.1 µM | 0.1 µM | 1.4 µM | 0.5 µM | 6 µM | 2.3 µM | 8.1 µM | 0.3 µM | 16.7 µM | 20 µM | 0.2 µM | 3.5 µM | 0.5 µM | – | – | – | – | –
2 | Fc1cccc(F)c1Cn1c(-c2c(F)cccc2F)nc2ccccc21 | – | 0.46 µM | 0.27 µM | 4.75 µM | 2.3 µM | – | 11.7 µM | 12.9 µM | – | – | > 20 µM | 0.84 µM | > 20 µM | 1.85 µM | > 20 µM | 15.2 µM | 10.4 µM | – | –
3 | Fc1cccc(F)c1C1SCc2nc3ccccc3n21 (centres undefined) [3-(2,6-difluorophenyl)-4-thia-2,7-diazatricyclo[6.4.0.0^{2,6}]dodeca-1(12),6,8,10-tetraene] | – | 0.7 µM | 1.5 µM | – | 3.1 µM | 16.3 µM | – | > 20 µM | 12.2 µM | – | > 20 µM | 1.7 µM | 14.5 µM | 1.7 µM | > 20 µM | – | 9.7 µM | 17.7 µM | –
4 | CC1Cn2c(=O)[nH]c3cccc(c32)CN1 (stereo not drawn) [(S-(+))-8-Methyl-6,7,8,9-tetrahydro-2H-2,7,9a-triaza-benzo[cd]azulen-1-one] | – | 0.2 µM | 0.3 µM | 11 µM | 6.2 µM | 4.2 µM | > 17.4 µM | 17.4 µM | 17.4 µM | – | 12.5 µM | > 17.4 µM | – | 0.3 µM | 17.4 µM | – | 2.4 µM | – | 2 µM
